Results published in patent publication US4931447A, “Cycloalkylamides of (8β)-1-alkyl-6-(substituted) ergolines” (Eli Lilly and Company, priority 1989, dated 1990).

Columns and labels:
Type in all cases: in vivo, rat (male Sprague-Dawley)
Male Rats [1] = assay: Copulatory performance of male rats (Non-Maters and Non-Ejaculators), subcutaneous administration, percent responding (Table II)
Procedure: (§1) Adult male rats of the Sprague-Dawley strain were used in these studies. The sexual behavior evaluations were conducted at 2-week intervals beginning at 6 months of age and ending at 12 months of age. During the initial screening process, the male rats of various levels of sexual performance were selected for compound testing. […] Prior to treatment with a drug solution, each male rat was required to have at least two consecutive vehicle tests with similar sexual performance. Following each compound testing, additional vehicle tests were performed.
(§2) The mating tests were performed during the dark phase of the lighting cycle using red light illumination. Each behavioral test was initiated with the introduction of a receptive female rat into the arena and was terminated either 30 minutes later or immediately following the first postejaculatory mount. The indiees of mating performance that were evaluated for the rats capable of ejaculation included mount latency (the time interval from the introduction of the female rat to the first mount); intromission latency (the time interval from the introduction of the female rat to the first intromission); ejaculatory latency (the time interval from intromission to ejaculation); postejaculatory interval (the time from ejaculation to the next mount); mount frequency (the total number of mounts with or without intromission prior to ejaculation); intromission frequency (the number of mounts with intromission prior to ejaculation); intromission efficiency (the intromission frequency divided by the mount frequency); copulatory rate (the number of mounts per minute); copulatory frequency (the number of mounts prior to ejaculation); and copulatory efficiency (the number of mounts with intromission divided by the total number of mounts).
(§3) Each male rat was given a solution containing either the vehicle alone in water or the compound of Example 1, (8β)-N-cyclohexyl-1-isopropyl-6-methylergoline-8-carboxamide, in the same vehicle. Vehicle was made of 1 mM (millimolar) acetic acid and 1 mM ascorbic acid.
(§4) The results of these studies are set forth below in Tables II-VII. In the Tables "N" is the number of animals used to generate the data, the average of which is provided. The specific description of the test performed is set forth in the heading of the Tables.

Male Rats [2] = assay: Copulatory performance of male rats, subcutaneous administration (Tables III, IV); settings: for Postejaculatory Latency / Ejaculatory Latency: 30 min before test; for Copulatory Rate: number of mounts per minute
Procedure: as §1, §2, §3, §4
Control values were obtained from the same rats 2 weeks earlier following
All injections were made 30 minutes prior to testing

Male Rats [3] = assay: Copulatory performance of male rats, oral administration (Tables V, VI); settings: for Postejaculatory Latency / Ejaculatory Latency: 90 min before test, seconds per Table III; for Copulatory Rate: number of mounts per minute
Procedure: as §1, §2, §3, §4
All solutions were administered by gavage 90 minutes prior to testing.
Control responses were obtained from the same rats 2 weeks earlier
following vehicle administration by gavage.

Male Rats [4] = assay: Copulatory performance of male rats after various time periods following subcutaneous administration at 10 mcg/kg (Table VII); settings: 10 mcg/kg s.c.
Procedure: as §1, §2, §3, §4
Of Example 1 at 10 mcg/kg After Various Time Periods

## CC(C)n1cc2c3c(cccc31)[C@H]1C[C@@H](C(=O)NC3CCCCC3)CN(C)[C@@H]1C2 [Example 1, (8β)-N-Cyclohexyl-1-isopropyl-6-methylergoline-8-carboxamide]
Male Rats [1]; 1 ng/kg s.c., 1/9 responding
  Non-Ejaculators Percent Responding: 11.1%
Male Rats [1]; 1 ng/kg s.c., 1/16 responding
  Non-Maters Percent Responding: 6.3%
Male Rats [1]; 10 ng/kg s.c., 4/14 responding
  Non-Maters Percent Responding: 28.6%
Male Rats [1]; 10 ng/kg s.c., 9/20 responding
  Non-Ejaculators Percent Responding: 45.0%
Male Rats [1]; 100 ng/kg s.c., 6/11 responding
  Non-Ejaculators Percent Responding: 54.5%
Male Rats [1]; 100 ng/kg s.c., 8/14 responding
  Non-Maters Percent Responding: 57.1%
Male Rats [1]; 1000 ng/kg s.c., 7/12 responding
  Non-Maters Percent Responding: 58.3%
Male Rats [1]; 1000 ng/kg s.c., 9/16 responding
  Non-Ejaculators Percent Responding: 56.3%
Male Rats [1]; 10000 ng/kg s.c., 6/11 responding
  Non-Maters Percent Responding: 54.5%
Male Rats [1]; 10000 ng/kg s.c., 11/18 responding
  Non-Ejaculators Percent Responding: 61.1%
Male Rats [2]; 0.01 mcg/kg s.c., N = 14, control 366.9 ± 15.6
  Postejaculatory Latency: 366.8 ± 19.8 s
Male Rats [2]; 0.01 mcg/kg s.c., N = 14, control 602.6 ± 47.4
  Ejaculatory Latency: 530.4 ± 64.6 s
Male Rats [2]; 0.01 mcg/kg s.c., N = 14, control 0.59 ± 0.05
  Copulatory Efficiency: 0.56 ± 0.03
Male Rats [2]; 0.01 mcg/kg s.c., N = 14, control 20.1 ± 2.4
  Mount Frequency: 21.4 ± 2.0
Male Rats [2]; 0.01 mcg/kg s.c., N = 14, control 2.1 ± 0.2
  Copulatory Rate: 2.4 ± 0.3
Male Rats [2]; 0.10 mcg/kg s.c., N = 15, control 367.1 ± 18.7
  Postejaculatory Latency: 355.9 ± 13.2 s
Male Rats [2]; 0.10 mcg/kg s.c., N = 15, control 747.9 ± 61.8, significant (*)
  Ejaculatory Latency: 532.9 ± 58.0 s
Male Rats [2]; 0.10 mcg/kg s.c., N = 15, control 0.38 ± 0.03, significant (*)
  Copulatory Efficiency: 0.54 ± 0.04
Male Rats [2]; 0.10 mcg/kg s.c., N = 15, control 25.0 ± 2.3
  Mount Frequency: 22.9 ± 2.6
Male Rats [2]; 0.10 mcg/kg s.c., N = 15, control 2.0 ± 0.2, significant (*)
  Copulatory Rate: 2.7 ± 0.3
Male Rats [2]; 1.0 mcg/kg s.c., N = 11, control 371.2 ± 19.8
  Postejaculatory Latency: 357.3 ± 9.5 s
Male Rats [2]; 1.0 mcg/kg s.c., N = 11, control 749.5 ± 59.1, significant (*)
  Ejaculatory Latency: 584.8 ± 89.4 s
Male Rats [2]; 1.00 mcg/kg s.c., N = 11, control 0.53 ± 0.04, significant (*)
  Copulatory Efficiency: 0.67 ± 0.03
Male Rats [2]; 1.00 mcg/kg s.c., N = 11, control 23.1 ± 2.4
  Mount Frequency: 21.4 ± 1.7
Male Rats [2]; 1.00 mcg/kg s.c., N = 11, control 1.9 ± 0.2, significant (*)
  Copulatory Rate: 2.4 ± 0.2
Male Rats [2]; 10.0 mcg/kg s.c., N = 11, control 368.3 ± 23.0
  Postejaculatory Latency: 333.9 ± 10.9 s
Male Rats [2]; 10.0 mcg/kg s.c., N = 11, control 850.4 ± 99.2, significant (*)
  Ejaculatory Latency: 454.1 ± 78.4 s
Male Rats [2]; 10.0 mcg/kg s.c., N = 11, control 0.49 ± 0.05, significant (*)
  Copulatory Efficiency: 0.57 ± 0.04
Male Rats [2]; 10.0 mcg/kg s.c., N = 11, control 23.2 ± 2.1
  Mount Frequency: 18.5 ± 2.4
Male Rats [2]; 10.0 mcg/kg s.c., N = 11, control 1.7 ± 0.2, significant (*)
  Copulatory Rate: 2.6 ± 0.4
Male Rats [2]; 100.0 mcg/kg s.c., N = 16, control 373.3 ± 22.8
  Postejaculatory Latency: 325.6 ± 16.0 s
Male Rats [2]; 100.0 mcg/kg s.c., N = 16, control 731.8 ± 44.5, significant (*)
  Ejaculatory Latency: 463.6 ± 46.6 s
Male Rats [2]; 100.0 mcg/kg s.c., N = 16, control 0.49 ± 0.03, significant (*)
  Copulatory Efficiency: 0.59 ± 0.04
Male Rats [2]; 100.0 mcg/kg s.c., N = 16, control 24.8 ± 2.3
  Mount Frequency: 21.3 ± 1.4
Male Rats [2]; 100.0 mcg/kg s.c., N = 16, control 2.1 ± 0.2, significant (*)
  Copulatory Rate: 2.9 ± 0.3
Male Rats [3]; 0.01 mcg/kg oral gavage, N = 17, control 358.5 ± 23.1
  Postejaculatory Latency: 370.2 ± 23.7
Male Rats [3]; 0.01 mcg/kg oral gavage, N = 17, control 713.6 ± 58.1, significant (*)
  Ejaculatory Latency: 689.2 ± 91.2
Male Rats [3]; 0.01 mcg/kg oral gavage, N = 17, control 0.43 ± 0.04
  Copulatory Efficiency: 0.46 ± 0.05
Male Rats [3]; 0.01 mcg/kg oral gavage, N = 17, control 29.7 ± 2.9, significant (*)
  Mount Frequency: 27.5 ± 4.4
Male Rats [3]; 0.01 mcg/kg oral gavage, N = 17, control 2.5 ± 0.2
  Copulatory Rate: 2.3 ± 0.2
Male Rats [3]; 0.1 mcg/kg oral gavage, N = 14, control 381.9 ± 13.4, significant (*)
  Postejaculatory Latency: 313.4 ± 12.0
Male Rats [3]; 0.1 mcg/kg oral gavage, N = 14, control 735.4 ± 51.9, significant (*)
  Ejaculatory Latency: 486.5 ± 70.8
Male Rats [3]; 0.1 mcg/kg oral gavage, N = 14, control 0.60 ± 0.05
  Copulatory Efficiency: 0.60 ± 0.05
Male Rats [3]; 0.1 mcg/kg oral gavage, N = 14, control 19.4 ± 2.4
  Mount Frequency: 18.7 ± 2.1
Male Rats [3]; 0.1 mcg/kg oral gavage, N = 14, control 1.7 ± 0.2, significant (*)
  Copulatory Rate: 2.5 ± 0.4
Male Rats [3]; 1.0 mcg/kg oral gavage, N = 8, control 384.1 ± 23.5
  Postejaculatory Latency: 322.1 ± 15.3
Male Rats [3]; 1.0 mcg/kg oral gavage, N = 8, control 646.3 ± 51.0
  Ejaculatory Latency: 415.9 ± 62.3
Male Rats [3]; 1.0 mcg/kg oral gavage, N = 8, control 0.59 ± 0.06
  Copulatory Efficiency: 0.58 ± 0.04
Male Rats [3]; 1.0 mcg/kg oral gavage, N = 8, control 21.1 ± 3.9, significant (*)
  Mount Frequency: 16.8 ± 1.8
Male Rats [3]; 1.0 mcg/kg oral gavage, N = 8, control 2.0 ± 0.4
  Copulatory Rate: 2.7 ± 0.4
Male Rats [3]; 10.0 mcg/kg oral gavage, N = 12, control 345.1 ± 20.3, significant (*)
  Postejaculatory Latency: 299.7 ± 15.1
Male Rats [3]; 10.0 mcg/kg oral gavage, N = 12, control 731.0 ± 87.0, significant (*)
  Ejaculatory Latency: 434.2 ± 37.9
Male Rats [3]; 10.0 mcg/kg oral gavage, N = 12, control 0.43 ± 0.03
  Copulatory Efficiency: 0.49 ± 0.04
Male Rats [3]; 10.0 mcg/kg oral gavage, N = 12, control 25.9 ± 1.6
  Mount Frequency: 22.9 ± 1.2
Male Rats [3]; 10.0 mcg/kg oral gavage, N = 12, control 2.2 ± 0.2, significant (*)
  Copulatory Rate: 3.3 ± 0.3
Male Rats [3]; 100.0 mcg/kg oral gavage, N = 8, control 417.9 ± 28.4
  Postejaculatory Latency: 350.6 ± 29.5
Male Rats [3]; 100.0 mcg/kg oral gavage, N = 8, control 804.6 ± 73.5, significant (*)
  Ejaculatory Latency: 366.1 ± 52.2
Male Rats [3]; 100.0 mcg/kg oral gavage, N = 8, control 0.51 ± 0.06, significant (*)
  Copulatory Efficiency: 0.69 ± 0.04
Male Rats [3]; 100.0 mcg/kg oral gavage, N = 8, control 19.4 ± 1.7, significant (*)
  Mount Frequency: 14.4 ± 1.3
Male Rats [3]; 100.0 mcg/kg oral gavage, N = 8, control 1.4 ± 0.1, significant (*)
  Copulatory Rate: 2.6 ± 0.4
Male Rats [4]; 0.5 hours, N = 11, control 1.7 ± 0.2, significant (*)
  Copulatory Rate: 2.6 ± 0.4 mounts/minute
Male Rats [4]; 0.5 hours, N = 11, control 368.3 ± 23.0
  Postejaculatory Interval: 333.9 ± 10.9 s
Male Rats [4]; 0.5 hours, N = 11, control 850.4 ± 99.2, significant (*)
  Ejaculatory Latency: 454.1 ± 78.4 s
Male Rats [4]; 8.0 hours, N = 11, control 2.6 ± 0.2, significant (*)
  Copulatory Rate: 3.9 ± 0.5 mounts/minute
Male Rats [4]; 8.0 hours, N = 11, control 349.5 ± 16.8, significant (*)
  Postejaculatory Interval: 320.1 ± 17.0 s
Male Rats [4]; 8.0 hours, N = 11, control 653.1 ± 61.7, significant (*)
  Ejaculatory Latency: 402.3 ± 59.7 s
Male Rats [4]; 24.0 hours, N = 15, control 2.0 ± 0.3, significant (*)
  Copulatory Rate: 2.8 ± 0.4 mounts/minute
Male Rats [4]; 24.0 hours, N = 15, control 422.4 ± 25.5
  Postejaculatory Interval: 391.7 ± 18.7 s
Male Rats [4]; 24.0 hours, N = 15, control 815.5 ± 64.6, significant (*)
  Ejaculatory Latency: 604.1 ± 68.4 s
Male Rats [4]; 48.0 hours, N = 11, control 2.4 ± 0.2, significant (*)
  Copulatory Rate: 2.5 ± 0.2 mounts/minute
Male Rats [4]; 48.0 hours, N = 11, control 364.8 ± 27.8, significant (*)
  Postejaculatory Interval: 365.4 ± 20.2 s
Male Rats [4]; 48.0 hours, N = 11, control 591.0 ± 33.8
  Ejaculatory Latency: 531.8 ± 60.6 s
